Test results taken from US20260207641A1, “COMBINATION THERAPY FOR CANCER USING ROS-ACTIVATED PRODRUGS AND ROS-AMPLIFYING THERAPEUTICS” (UWM Research Foundation, Inc., priority 2023, published 2026).
Several values for one entry are separate records, joined by “and”; a condition that tells them apart may be missing. Equal values may be shown once. Read-outs that look alike come from different tables or passages of the source.

What was measured:
MDA-MB-468 cells [1] = conditions: cited from earlier work
MDA-MB-468 cells [2] = assay: Cytotoxicity dose response (CellTiter-Glo, 48 h); format: cell-based, human
MCF 10A (normal cells) = assay: Cytotoxicity dose response (CellTiter-Glo, 48 h); format: cell-based, human
HMEC cells = assay: cells; format: cell-based; conditions: Homo sapiens, 48 h
MDA-MB-468 cells [3] = format: cell-based, human
MCF7 cells [4] = test system: MCF7 cells
MDA-MB-436 cells = assay: cells; format: cell-based, human
MCF7 cells [5] = assay: cells; format: cell-based, human
U-87 MG cells [6] = assay: cells; format: cell-based
MDA-MB-468 cells [7] = format: cell-based, human; remark: listed apart in the source
U-87 MG cells [8] = test system: U-87 MG cells
[9] = test system: extracellular H2O2 in MCF7 cells; assay: Extracellular H2O2 measurement (Amplex Red assay); format: cell-based, human; conditions: 48 h
[10] = test system: extracellular H2O2 in U-87 MG cells; assay: Extracellular H2O2 measurement (Amplex Red assay); format: cell-based; conditions: U-87 MG at maximum safe ascorbic acid dose, 48 h
MDA-MB-231 cells = assay: cells; format: cell-based, human
[11] = test system: extracellular H2O2 in MDA-MB-468 cells; assay: Extracellular H2O2 measurement (Amplex Red assay); format: cell-based, human; conditions: MDA-MB-468 at maximum safe ascorbic acid dose, 48 h
[12] = test system: MDA-MB-468 breast cancer xenograft; parameters: species or system immune-deficient female nude mice; conditions: mouse, in vivo
[13] = test system: extracellular H2O2 in MCF 10A cells; assay: Extracellular H2O2 measurement (Amplex Red assay); format: cell-based, human; conditions: MCF 10A at maximum safe ascorbic acid dose, 48 h
MCF 10A cells = format: cell-based, human
[14] = test system: intracellular H2O2 in MDA-MB-468 cells; assay: Intracellular H2O2 measurement (AbGreen indicator); format: cell-based, human; conditions: MDA-MB-468 under ascorbic acid treatment, 48 h

For `O=C(O)CCCc1ccc(N(CCCl)CCCl)cc1` [Chlorambucil], the IC50 (MDA-MB-468 cells [1]) is given as 34.4 µM, the “Fold Change” value (MDA-MB-468 cells [2]) is given as 1 fold and the IC50 (MDA-MB-468 cells [2]; Homo sapiens, MDA-MB-468, 48 h) is given as 30.2 ± 2.3 µM. It also gave an IC50 (MDA-MB-468 cells [2]; Homo sapiens, MDA-MB-468, read-out: IC50 in combination with Vitamin C Safe Dose) of 28.7 ± 2.4 µM.

For `O=C(OC1Cc2c(O)cc(O)cc2OC1c1cc(O)c(O)c(O)c1)c1cc(O)c(O)c(O)c1` (stereo not drawn) [EGCG], the “MSD (Maximum Safe Dose)” value (MCF 10A (normal cells)) was 6.25 µM, the IC50 (MCF 10A (normal cells); Homo sapiens, MCF-10A, 48 h) was 28.5 ± 2.55 µM and the “MSD (Maximum Safe Dose)” value (MDA-MB-468 cells [2]) was 12.50 µM. For the same molecule, the “SI (Selectivity Index)” value (MDA-MB-468 cells [2]) was 0.5, the “SI of Prodrug Combined with Maximum Safety Dose of Pro-oxidant” value (“SI of Prodrug Combined” below) (MDA-MB-468 cells [2]) was 2 and the IC50 (MDA-MB-468 cells [2]; Homo sapiens, MDA-MB-468, 48 h) was 65 ± 3.45 µM.

For `CC1(C)CCC2=C(O1)c1ccccc1C(=O)C2=O` [β-Lapachone], the “MSD (Maximum Safe Dose)” value (MCF 10A (normal cells)) was 1.56 µM, the IC50 (MCF 10A (normal cells); Homo sapiens, MCF-10A, 48 h) was 3.42 ± 0.22 µM and the “MSD (Maximum Safe Dose)” value (MDA-MB-468 cells [2]) was 0.78 µM. For the same molecule, the “SI (Selectivity Index)” value (MDA-MB-468 cells [2]) was 3, the “SI of Prodrug Combined” value (MDA-MB-468 cells [2]) was 2 and the IC50 (MDA-MB-468 cells [2]; Homo sapiens, MDA-MB-468, 48 h) was 1.06 ± 0.17 µM.

In the case of `COc1cc(/C=C/C(=O)N2CCC=CC2=O)cc(OC)c1OC` [Piperlogumine], the “MSD (Maximum Safe Dose)” value (MCF 10A (normal cells)) is reported as 1.56 µM, the IC50 (MCF 10A (normal cells); Homo sapiens, MCF-10A, 48 h) is reported as 4.91 ± 0.51 µM and the “MSD (Maximum Safe Dose)” value (MDA-MB-468 cells [2]) is reported as 0.78 µM. For the same molecule, the “SI (Selectivity Index)” value (MDA-MB-468 cells [2]) was 2, the “SI of Prodrug Combined” value (MDA-MB-468 cells [2]) was 6 and the IC50 (MDA-MB-468 cells [2]; Homo sapiens, MDA-MB-468, 48 h) was 2.24 ± 0.05 µM.

For `Cc1c(C)c2c(c(C)c1O)CCC(C)(CCCC(C)CCCC(C)CCCC(C)C)O2` (stereo not drawn) [Vitamin E], the “MSD (Maximum Safe Dose)” value (MCF 10A (normal cells)) was 25.00 µM, the IC50 (MCF 10A (normal cells); Homo sapiens, MCF-10A, 48 h) was 376 ± 21.4 µM and the “MSD (Maximum Safe Dose)” value (MDA-MB-468 cells [2]) was 1.56 µM. For the same molecule, the “SI (Selectivity Index)” value (MDA-MB-468 cells [2]) was 5, the “SI of Prodrug Combined” value (MDA-MB-468 cells [2]) was 11 and the IC50 (MDA-MB-468 cells [2]; Homo sapiens, MDA-MB-468, 48 h) was 76.5 ± 6.62 µM.

For `O=C1O[C@H]([C@@H](O)CO)C(O)=C1O` [Vitamin C], the IC50 (HMEC cells) was 2670 ± 400 µM, the “observable DNA damage” value (MDA-MB-468 cells [3]) was “did not show any observable DNA damage” and the “dose found to be safe” value (MCF7 cells [4]) was 0.25 mM. For the same molecule, the “Maximum Safe Dose (MSD)” value (MDA-MB-436 cells) was 1 mM, the IC50 (MDA-MB-436 cells; Homo sapiens, MDA-MB-436, 48 h) was 1390 ± 100 µM and the IC50 (MCF7 cells [5]) was 970 ± 70 µM. The “Maximum Safe Dose (MSD)” value (MCF7 cells [5]) was 0.25 mM, the IC50 (MCF7 cells [5]; Homo sapiens, MCF7, 48 h) was 1000 µM and the “Maximum Safe Dose (MSD)” value (U-87 MG cells [6]) was 0.3 mM and 0.30 mM. The IC50 (U-87 MG cells [6]; Homo sapiens, U-87 MG, 48 h) was 1000 µM, the “dose found to be safe” value (MDA-MB-468 cells [7]) was 1 mM and the “dose found to be safe” value (U-87 MG cells [8]) was 0.25 mM. The “H2O2 generated (most substantial change)” value ([9]; MCF7, increasing mM ascorbic acid) was “over 20 μM”, the “extracellular H2O2 level” value ([9]; MCF7 at maximum safe ascorbic acid dose) was about 7 µM and the IC50 (MCF 10A (normal cells)) was 4200 ± 400 µM. The “Maximum Safe Dose (MSD)” value (MCF 10A (normal cells)) was 1.25 mM, the “Maximum Safe Dose (MSD)” value (MDA-MB-468 cells [2]) was 1 mM and 1.00 mM and the “extracellular H2O2 level” value [10] was about 7 µM. For the same molecule, the “Maximum Safe Dose (MSD)” value (MDA-MB-231 cells) was 1 mM, the IC50 (MDA-MB-231 cells; Homo sapiens, MDA-MB-231, 48 h) was 2230 ± 300 µM and the “extracellular H2O2 level” value [11] was “around 10 μM”. The “effect on tumor size” value [12] was “observable inhibitory effects on the tumor size”, the “extracellular H2O2 level” value [13] was about 5 µM and the “dose found to be safe” value (MCF 10A cells) was 1 mM. For the same molecule, the “intracellular H2O2 level compared to untreated samples” value [14] was “significant threefold increase”.

For `O=c1c(O)c(-c2ccc(O)c(O)c2)oc2cc(O)cc(O)c12` [Quercetin], the “MSD (Maximum Safe Dose)” value (MCF 10A (normal cells)) was 6.25 µM, the IC50 (MCF 10A (normal cells); Homo sapiens, MCF-10A, 48 h) was 19.6 ± 1.24 µM and the “MSD (Maximum Safe Dose)” value (MDA-MB-468 cells [2]) was 3.13 µM. For the same molecule, the IC50 (MDA-MB-468 cells [2]; Homo sapiens, MDA-MB-468, 48 h) was 15.8 ± 2.15 µM.

In the case of Arsenic Trioxide, the “MSD (Maximum Safe Dose)” value (MCF 10A (normal cells)) is reported as 1.56 µM, the IC50 (MCF 10A (normal cells); read-out: IC50) is reported as 8.52 ± 0.4 µM and the “MSD (Maximum Safe Dose)” value (MDA-MB-468 cells [2]) is reported as 0.79 µM. The “SI (Selectivity Index)” value (MDA-MB-468 cells [2]) was 1, the “SI of Prodrug Combined” value (MDA-MB-468 cells [2]) was 5 and the IC50 (MDA-MB-468 cells [2]; read-out: IC50) was 6.27 ± 0.33 µM.

With `CCCOC(=O)c1cc(O)c(O)c(O)c1` [Propyl Gallate] the “MSD (Maximum Safe Dose)” value (MCF 10A (normal cells)) was 12.50 µM, the IC50 (MCF 10A (normal cells); Homo sapiens, MCF-10A, 48 h) was 51.4 ± 5.45 µM and the “MSD (Maximum Safe Dose)” value (MDA-MB-468 cells [2]) was 25.00 µM. For the same molecule, the “SI (Selectivity Index)” value (MDA-MB-468 cells [2]) was 1, the “SI of Prodrug Combined” value (MDA-MB-468 cells [2]) was 3 and the IC50 (MDA-MB-468 cells [2]; Homo sapiens, MDA-MB-468, 48 h) was 49.2 ± 1.83 µM.
